According to patent US20030134893A1, “Combination chemotherapy” (priority 1999, published 2003):
Values joined by “and” are separate entries in the source; they are usually repeats but may differ in a detail not shown here. Identical values can stand only once. Like-named read-outs stand apart in the source and are kept apart here. Marks after values point to notes of the source that are not given here.

Columns and labels:
[1] = in vivo; settings: female, mouse, in vivo
Procedure: (§1) Each agent was also evaluated alone, and treatment groups were compared to untreated controls.

[2] = tested on: LC-12 squamous cell lung carcinoma tumor; experiment: in vivo
Procedure: as §1

[3] = tested on: solid tumor; experiment: Phase 1 dose-escalation clinical study of CI-994 (solid tumor); assay type: in vivo, human
Procedure: In one such study, patients were treated using a dose-escalation scheme that increased both the daily dose and the duration of treatment. The majority of patients had received extensive prior chemotherapy. The maximum-tolerated dose (MTD) was 15 mg/m^2/day when the duration of treatment was 14 consecutive days. To allow more prolonged treatment, lower doses were studied. Using a schedule of 8 weeks of continuous daily therapy, followed by a 2-week ‘drug holiday’, the MTD was 8 mg/m^2/day. […] Blood counts tended to stabilize even with continued treatment and to recover quickly when treatment was stopped.

[4] = tested on: relapsed acute leukemia or other hematologic malignancy; experiment: Phase 1 study of CI-994, once daily high-dose 5-day schedule; assay type: in vivo
Procedure: An additional Phase 1 study was conducted in patients with relapsed acute leukemia or other hematologic malignancy using a once daily high-dose 5-day dosing schedule. The MTD was 135 mg/m^2/day. […] Hematologic toxicities cannot be assessed in this patient population.

[5] = Pharmacokinetics of oral CI-994 in the solid tumor Phase 1 study, incl. food effect; assay type: in vivo, human; settings: fasted patients
[6] = Route of elimination of radiolabeled drug, monkeys; assay type: in vivo; settings: within 24 hours
Procedure: (§2) Mass balance/route of elimination studies have not been conducted in humans. Animal studies indicate that the principal route of elimination is via renal excretion, with 80% and 62% of radiolabeled drug appearing in the urine of monkeys and rats, respectively, within 24 hours.

[7] = Route of elimination of radiolabeled drug, rats; assay type: in vivo; settings: within 24 hours
Procedure: as §2

[8] = tested on: LC-12 Mouse Lung Carcinoma
[9] = in vivo; settings: female, BALB/C, mouse, po
[10] = tested on: nonsmall cell lung cancer, renal cell cancer and other cancers; experiment: Phase 2 program with CI-994 as a single agent
[11] = in vivo; settings: female, mouse, iv
Procedure: The test mice were obtained from Charles River Laboratories, Wilmington, Mass. On Day 0 of the test, each mouse was surgically implanted (subcutaneously) with a fragment of LC-12 squamous cell lung carcinoma tumor weighing approximately 30 to 60 mg. The tumor fragments were implanted using a 12 gauge trocar. The mice were weighed weekly, and tumor size (width and length in mm) were measured two times each week with standard calipers. Tumor mass for each animal was calculated according to the formula: [formula]
where “a” is width of the tumor in mm, and “b” is the length in mm. […] Antitumor activity was assessed according to four parameters: (1) partial tumor response (PR); (2) complete tumor response (CR); (3) tumor-free survival (TF); and (4) tumor growth delay (TL). Tumor growth delay is expressed as a T−C value, where T is the median days required for the treatment group tumors to reach a predetermined size (e.g., 750 mg), and C is the median days for the control group tumors to reach this size. From the tumor growth delay value, the net log10 tumor cell kill is calculated as follows:
where Td is the days for the tumor mass to double, and Rx is the total days of treatment. […] The conversion of the T−C values to log10 cell kill is possible because the Td for tumors regrowing after treatment is approximately the same as that for untreated control mice. […]

[12] = CI-994 15 mg/kg/day Days 11-15,18-22,25-29
[13] = CI-994 7.5 mg/kg/day oral Days 8-12,15-19, 22-26
[14] = CI-994 15.0 mg/kg/day oral Days 8-12,15-19, 22-26
[15] = CI-994 30.0 mg/kg/day oral Days 8-12,15-19, 22-26
[16] = CI-994 60.0 mg/kg/day oral Days 8-12,15-19, 22-26
[17] = CI-994 60.0 mg/kg/day oral Days 8-12,15-19, 22-26, 60 mg/kg/day
[18] = Carboplatin 30 mg/kg/day Days 11-15
[19] = Carboplatin 15 mg/kg/day ip Days 8-12
[20] = Carboplatin 20 mg/kg/day ip Days 8-12
[21] = Paclitaxel 15 mg/kg/day Days 11-15

CC(=O)Nc1ccc(C(=O)Nc2ccccc2N)cc1 [CI-994, 4-acetylamino-N-(2′-aminophenyl)-benzamide]
MTD ([1]; BALB/C): 60 mg/kg/day
CR (complete response) [2, 12]: 0
Net log10 Kill [2, 12]: −1.3 log10
No. Tumor Free (40 days after the last treatment) [2, 12]: 0
Nonspecific Deaths [2, 12]: 0/10
PR (partial response) [2, 12]: 0
T-C (days to reach 750 mg) [2, 12]: 4.6 days
complete response rate ([2]; CI-994 60 mg/kg/day (MTD)): 30%
T-C (days to reach 750 mg) ([2]; CI-994 60 mg/kg/day Days 11-15,18-22,25-29): 16.2 days
% Weight Change ([2]; mouse, in vivo, 15 mg/kg/day): +4.0%
% Weight Change ([2]; mouse, in vivo, 30 mg/kg/day): 13.4%
% Weight Change ([2]; mouse, in vivo, 60 mg/kg/day): 16.2%
MTD ([3]; 8 weeks of continuous daily therapy, followed by a 2-week drug holiday, patients): 8 mg/m^2/day
maximum-tolerated dose (MTD) ([3]; duration of treatment 14 consecutive days, patients): 15 mg/m^2/day
cumulative toxicity ([3]; human, in vivo): no evidence of cumulative toxicity
dose-limiting toxicity ([3]; human, in vivo): thrombocytopenia or neutropenia
other toxicities ([3]; human, in vivo): nausea, vomiting, diarrhea, anorexia, fatigue, mucositis, headache, dehydration, and increases in liver and renal function test values
time of occurrence of the dose-limiting toxicity after the start of therapy ([3]; human, in vivo): ≤ 1 month
responses ([3]; patients, majority with extensive prior chemotherapy): one partial response in a heavily pretreated patient with NSCLC and a minor response in one patient each with renal cell cancer and NSCLC
dose-limiting toxicity ([4]; in vivo): acute CNS toxicity manifested as sedation and somnolence
other adverse events ([4]; in vivo): nausea, vomiting, hypotension resulting from dehydration, hypocalcemia, headache, and in one patient each, acute pancreatitis, a pyramidal syndrome characterized by hyperreflexia and bilateral Babinski reflexes, and sepsis
MTD ([4]; once daily high-dose 5-day dosing schedule, patients): 135 mg/m^2/day
tumor lysis syndrome ([4]; patients with AML): Two patients with AML developed tumor lysis syndrome, resulting in one death
dose dependence of terminal elimination half-life and apparent clearance rate [5]: independent of the dose administered
maximum plasma concentrations with increasing dose levels [5]: less than dose-proportional
time to maximum blood level after ingestion ([5]; preliminary results): 1 to 2 h
half-life ([5]; human, plasma, preliminary results, read-out: terminal elimination half-life (converted)): ~15 h
radiolabeled drug appearing in the urine [6]: 80%
radiolabeled drug appearing in the urine [7]: 62%
CR (complete response) [8, 13]: 2/10
Net Log10 Kill [8, 13]: −1.2 log10
No. Tumor Free (Day 71) [8, 13]: 2/10
No. of Deaths [8, 13]: 0/10
PR (partial response) [8, 13]: 0/10
T-C (days to reach 750 mg) [8, 13]: 1.0 days
CR (complete response) [8, 14]: 1/10
Net Log10 Kill [8, 14]: −1.3 log10
No. Tumor Free (Day 71) [8, 14]: 1/10
No. of Deaths [8, 14]: 0/10
PR (partial response) [8, 14]: 0/10
T-C (days to reach 750 mg) [8, 14]: 0.9 days
complete responses ([8]; CI-994 30 mg/kg): 20%
partial responses ([8]; CI-994 30 mg/kg): 10%
CR (complete response) [8, 15]: 2/10
Net Log10 Kill [8, 15]: −0.7 log10
No. Tumor Free (Day 71) [8, 15]: 2/10
No. of Deaths [8, 15]: 0/10
PR (partial response) [8, 15]: 1/10
T-C (days to reach 750 mg) [8, 15]: 8.2 days
complete responses ([8]; CI-994 60 mg/kg (MTD)): 50%
CR (complete response) [8, 16]: 5/10
No. of Deaths [8, 16]: 0/10
T-C (days to reach 750 mg) [8, 16]: 19.4 days
No. Tumor Free (Day 71) [8, 17]: 5/10
PR (partial response) [8, 17]: no partial responses and 0/10
antitumor activity ([8]; lower CI-994 doses (below 30 mg/kg)): Little antitumor activity
% Weight Change ([8]; mouse, in vivo, po, 7.5 mg/kg/day): +4.4%
% Weight Change ([8]; mouse, in vivo, po, 15 mg/kg/day): +4.9%
% Weight Change ([8]; mouse, in vivo, po, 30 mg/kg/day): +2.0%
% Weight Change ([8]; mouse, in vivo, po, 60 mg/kg/day): −1.5%
MTD at 15 days [9]: 60 mg/kg
clinical benefit ([10]; 8 mg/m^2 given orally daily): Clinical benefit has been reported in patients with renal cell cancer
dose-limiting toxicity ([10]; 8 mg/m^2 given orally daily): Thrombocytopenia
infrequent neurologic adverse events ([10]; 8 mg/m^2 given orally daily): paresthesias, confusion, and hallucinations
objective responses ([10]; 8 mg/m^2 given orally daily): Objective responses have been seen in patients with nonsmall cell lung cancer
dose increases tolerated by some patients ([10]; oral daily, starting from 8 mg/m^2): 10 mg/m^2

N.N.O=C([O-])C1(C(=O)[O-])CCC1.[Pt+2] [Carboplatin, carboplatin, reference compound]
% Weight Change [2, 18]: −3.9%
Net log10 Kill [2, 18]: 0.3 log10
No. Tumor Free (40 days after the last treatment) [2, 18]: 0
Nonspecific Deaths [2, 18]: 0/10
T-C (days to reach 750 mg) [2, 18]: 6.9 days
MTD of carboplatin ([2]; given alone): 30 mg/kg
% Weight Change [8, 19]: −2.0%
CR (complete response) [8, 19]: 1/10
Net Log10 Kill [8, 19]: +0.3 log10
No. Tumor Free (Day 71) [8, 19]: 0/9
No. of Deaths [8, 19]: 1/10^h
PR (partial response) [8, 19]: no partial responses and 0/10
T-C (days to reach 750 mg) [8, 19]: 8.3 days
% Weight Change [8, 20]: −5.5%
CR (complete response) [8, 20]: 2/10
Net Log10 Kill [8, 20]: +0.1 log10
No. Tumor Free (Day 71) [8, 20]: 2/10
No. of Deaths [8, 20]: 0/10
PR (partial response) [8, 20]: 1/10
T-C (days to reach 750 mg) [8, 20]: 5.9 days
complete responses ([8]; carboplatin 20 mg/kg (MTD)): 20%
partial responses ([8]; carboplatin 20 mg/kg (MTD)): 10%
complete responses ([8]; carboplatin at 75% of its MTD (15 mg/kg)): Ten percent
MTD of carboplatin ([8]; ip, once a day, for 5 days): 20 mg/kg

CC(=O)O[C@H]1C(=O)[C@@]2(C)[C@H]([C@H](OC(=O)c3ccccc3)[C@]3(O)C[C@H](OC(=O)[C@H](O)[C@@H](NC(=O)c4ccccc4)c4ccccc4)C(C)=C1C3(C)C)[C@]1(OC(C)=O)CO[C@@H]1C[C@@H]2O [Taxol, paclitaxel, reference compound]
MTD ([1]; 15 mg/kg): 15 mg/kg
Net log10 Kill [2, 21]: 0.0 log10
No. Tumor Free (40 days after the last treatment) [2, 21]: 0
Nonspecific Deaths [2, 21]: 0/10
T-C (days to reach 750 mg) [2, 21]: 3.7 days
MTD [11]: 20 mg/kg/day
